# From the OligoGym collection
# “And” between values parts separate entries of the source, which are not always exact repeats. Equal entries are not always repeated. After the bases stand the sugars from the 5' end (letter, count) and the backbone: PS all phosphorothioate, else s phosphorothioate and o phosphodiester by linkage. Methylation of C is not given here. e = 2'-O-(2-methoxyethyl) (MOE); k = constrained ethyl (cEt); d = 2'-deoxy (DNA)
# Target: IRF4
# Details: ASO
Sequence,"target mRNA inhibition (MM.1R, 1 µM)","target mRNA inhibition (SK-MEL-28, 4 µM)"
"GATTATATACTGGTTG (sugars kddddddddddkekek, PS)",48%,–
"TAAAACTGCGCTCTCT (sugars k3 d10 k3, PS)",-14%,–
"TGAGCACTCTTACTCC (sugars k3 d10 k3, PS)",-6%,–
"GTGGGAGTCGGAGCTC (sugars k3 d10 k3, PS)",–,17%
"CTTTAGCCCATGCTCC (sugars k3 d10 k3, PS)",–,20%
"GGTCATACCCTGGATC (sugars k3 d10 k3, PS)",–,49%
"TTCATGTAAAGTCTGC (sugars kkdddddddddkdkdk, PS)",14% and 35%,–
"AGATAAGAAGCACTGG (sugars k3 d10 k3, PS)",–,25%
"GGCACATCAATGTTTT (sugars kkdddddddddkekek, PS)",23% and 19%,–
"TTGATGTGATAGCTGA (sugars k3 d10 k3, PS)",55%,–
"GTCAACATACACATAG (sugars k3 d10 k3, PS)",–,58%
"GAGTATTTCATAGCTA (sugars k3 d10 k3, PS)",–,71%
"CACGGGAATTTCCATT (sugars k3 d10 k3, PS)",–,71%
"ATGTTAGCCAATTCCT (sugars kkdddddddddkekek, PS)",28% and 44%,–
"TCCCAGTAGATCCTGC (sugars k3 d10 k3, PS)",–,40%
"TAAAGACCTTAACCAA (sugars k3 d10 k3, PS)",–,30%
"CTCATCACCGAACACA (sugars k3 d10 k3, PS)",8%,–
"AGGTAGTGGCCCCAGC (sugars k3 d10 k3, PS)",–,60%
"CGTGTGCTTGCCAAGC (sugars kkdddddddddkekek, PS)",49% and 43%,–

Sequence,"target mRNA inhibition (MM.1R, 1 µM)","target mRNA inhibition (SK-MEL-28, 4 µM)"
"ATGTAGGGATACAGCA (sugars k3 d10 k3, PS)",–,74%
"AATGTGTATTACTCTT (sugars kdddddddddkekeke, PS)",12% and 15%,–
"GTCCAGGTTGCTGGCG (sugars k3 d10 k3, PS)",–,53%
"GCAGCTCCTACATACA (sugars k3 d10 k3, PS)",–,53%
"GCTGATGGAGAAACGA (sugars k3 d10 k3, PS)",–,7%
"CATTGGTACGGGATTT (sugars k3 d10 k3, PS)",–,16%
"ATCCACAATCAGCAAG (sugars k3 d10 k3, PS)",–,51%
"ATAATTGGCACGAGGA (sugars k3 d10 k3, PS)",–,67%
"AAAAAAGGTGCAAGCC (sugars k3 d10 k3, PS)",–,7%
"TCTATAGTGTTCCAGG (sugars kkdddddddddkekek, PS)",28%,–
"TATGCCATGGACAAGT (sugars k3 d10 k3, PS)",–,19%
"TTACTTCCCTGAGAAA (sugars k4 d8 k4, PS)",–,14%
"GTTGTAAATGAGTCGG (sugars kkdddddddddekeke, PS)",48%,–
"TCAACCAGTTCCTCAA (sugars k3 d10 k3, PS)",-23%,–
"GGCCTGGAGGTGACGC (sugars k3 d10 k3, PS)",–,41%
"TAATCTGTATCATGCA (sugars k3 d10 k3, PS)",22%,–
"CCTAGATAACATGAGA (sugars k3 d10 k3, PS)",–,26%
"GAGCTTTCTTTGCCTC (sugars k3 d10 k3, PS)",–,13%
"GAGGACTTCGGGAGAT (sugars k3 d10 k3, PS)",–,23%

Sequence,"target mRNA inhibition (MM.1R, 1 µM)","target mRNA inhibition (SK-MEL-28, 4 µM)"
"TGCTTGAGGTTTTCCT (sugars k3 d9 k3 e1, PS)",46%,–
"TCCCATCCAAGAGTAG (sugars k3 d10 k3, PS)",–,33%
"ACAAGCATAAAAGGTT (sugars k4 d8 k4, PS)",–,40%
"CTGCAGCCAAGGATAA (sugars k3 d10 k3, PS)",–,48%
"ATAAAGACCTTAACCA (sugars k3 d10 k3, PS)",–,27%
"CCATTACTTAGACATT (sugars k3 d10 k3, PS)",–,64%
"AGGCAGGGACCGCGCC (sugars k3 d10 k3, PS)",-11%,–
"CAAGCAGTGATGTCAG (sugars k3 d10 k3, PS)",60% and 51%,–
"CACTACCTGCAGCCAA (sugars k3 d10 k3, PS)",–,31%
"CCCGAATAGGACCCCT (sugars k3 d10 k3, PS)",–,40%
"CCTAGGACTAAGGACA (sugars k3 d10 k3, PS)",-3%,–
"ATCTTCACTGTTAGCT (sugars k3 d10 k3, PS)",–,74%
"ACCTCAGTTTGTGAAG (sugars e1 k2 d9 k2 e2, PS)",2%,–
"CAAAGACCAGCTTTTT (sugars k3 d10 k3, PS)",–,50%
"ACAGGACCTGGTCCAG (sugars k4 d8 k4, PS)",–,7%
"AGATCTGTGGTAATCT (sugars k3 d10 k3, PS)",-3%,–
"GCAACTAGCAGGGCAC (sugars k3 d10 k3, PS)",–,53%
"CCACATAACTCAGGCA (sugars k3 d10 k3, PS)",–,70%
"AAGTGGAACTCATAGG (sugars k3 d10 k3, PS)",25%,–
